In ChEMBL document CHEMBL1201862, “PubChem BioAssay data set” (2004):
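The compound was tested at five concentrations on cells cultured in 96-well plates, with a 48-hour exposure period. Here, GI50 denotes the concentration required for 50% inhibition of growth.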 Calls of active or inactive are those of the source. Rule as the data show it: active = GI50 up to about 1.1 µM and inactive = higher.

Legend:
Test in all cases: DTP human tumour cell line panel, 48 h
A549 = test system: A549
HCC 2998 = test system: HCC 2998
IGROV-1 = test system: IGROV-1
KM-20L2 = test system: KM-20L2
LOX IMVI = test system: LOX IMVI
M19-MEL = test system: M19-MEL
Malme-3M = test system: Malme-3M
OVCAR-8 = test system: OVCAR-8
RPMI-8226 = test system: RPMI-8226
SF-295 = test system: SF-295
SK-MEL-28 = test system: SK-MEL-28
SK-MEL-2 = test system: SK-MEL-2
SNB-19 = test system: SNB-19
SR = test system: SR
SW-620 = test system: SW-620
U-251 = test system: U-251
MCF7 = test system: MCF7
MDA-N = test system: MDA-N
PC-3 = test system: PC-3
T47D = test system: T47D

Compound	GI50 (A549)	GI50 (HCC 2998)	GI50 (IGROV-1)	GI50 (KM-20L2)	GI50 (LOX IMVI)	GI50 (M19-MEL)	GI50 (Malme-3M)	GI50 (OVCAR-8)	GI50 (RPMI-8226)	GI50 (SF-295)	GI50 (SK-MEL-28)	GI50 (SK-MEL-2)	GI50 (SNB-19)	GI50 (SR)	GI50 (SW-620)	GI50 (U-251)	GI50 (MCF7)	GI50 (MDA-N)	GI50 (PC-3)	GI50 (T47D)
COc1ccc(/N=N/c2c(N)nn(C)c2N)cc1	> 100 µM (inactive)	0.319 µM (active)	> 100 µM (inactive)	> 100 µM (inactive)	> 100 µM (inactive)	> 100 µM (inactive)	> 100 µM (inactive)	> 100 µM (inactive)	> 100 µM (inactive)	> 100 µM (inactive)	> 100 µM (inactive)	> 100 µM (inactive)	> 100 µM (inactive)	18.5 µM (inactive)	> 100 µM (inactive)	> 100 µM (inactive)	–	–	–	–
CS(=O)(=O)c1c(N)c2nc(Cl)cn2c2nc3ccccc3nc12	> 100 µM (inactive)	> 100 µM (inactive)	> 100 µM (inactive)	> 100 µM (inactive)	> 100 µM (inactive)	> 100 µM (inactive)	> 100 µM (inactive)	57.8 µM (inactive)	> 100 µM (inactive)	> 100 µM (inactive)	> 100 µM (inactive)	> 100 µM (inactive)	> 100 µM (inactive)	> 100 µM (inactive)	> 100 µM (inactive)	> 100 µM (inactive)	–	–	–	–
O=C1C/C(=C/c2ccc(/C=C3/CC(=O)N(c4cccc(Br)c4)C3=O)cc2)C(=O)N1c1cccc(Br)c1	> 100 µM (inactive)	> 100 µM (inactive)	> 100 µM (inactive)	> 100 µM (inactive)	> 100 µM (inactive)	> 100 µM (inactive)	> 100 µM (inactive)	> 100 µM (inactive)	> 100 µM (inactive)	60.7 µM (inactive)	> 100 µM (inactive)	> 100 µM (inactive)	> 100 µM (inactive)	97.3 µM (inactive)	> 100 µM (inactive)	> 81.7 µM (inactive)	–	–	–	–
O=C1[C@H]2ON(c3ccccc3)C(c3ccc(Cl)cc3)[C@H]2C(=O)N1c1ccc(Cc2ccc(N3C(=O)[C@@H]4ON(c5ccccc5)C(c5ccc(Cl)cc5)[C@@H]4C3=O)cc2)cc1 (some centres not stated)	> 100 µM (inactive)	> 100 µM (inactive)	> 100 µM (inactive)	> 100 µM (inactive)	> 100 µM (inactive)	> 100 µM (inactive)	40.7 µM (inactive)	> 100 µM (inactive)	> 100 µM (inactive)	> 100 µM (inactive)	> 100 µM (inactive)	> 100 µM (inactive)	> 100 µM (inactive)	> 100 µM (inactive)	> 100 µM (inactive)	> 100 µM (inactive)	–	–	–	–
CN(N=O)C(=O)N[C@H]1C(O)O[C@H](CO)[C@@H](O)[C@@H]1O (some centres not stated)	571 µM (inactive)	533 µM (inactive)	618 µM (inactive)	> 750 µM (inactive)	–	475 µM (inactive)	600 µM (inactive)	617 µM (inactive)	565 µM (inactive)	589 µM (inactive)	611 µM (inactive)	647 µM (inactive)	565 µM (inactive)	537 µM (inactive)	511 µM (inactive)	593 µM (inactive)	518 µM (inactive)	> 750 µM (inactive)	> 750 µM (inactive)	611 µM (inactive)
O=C1C=CC2(C=C1)C[C@H](NC(=O)OCc1ccccc1)C(=O)O2	38.1 µM (inactive)	19.7 µM (inactive)	19.8 µM (inactive)	19 µM (inactive)	9.93 µM (inactive)	18.4 µM (inactive)	13 µM (inactive)	16 µM (inactive)	3.6 µM (inactive)	26.1 µM (inactive)	13 µM (inactive)	19.3 µM (inactive)	99.5 µM (inactive)	1.08 µM (active)	4.31 µM (inactive)	19.3 µM (inactive)	11.2 µM (inactive)	14.8 µM (inactive)	16.1 µM (inactive)	15.9 µM (inactive)
CCOC(=O)/C(I)=C/c1cc(OC)c(OC)c(OC)c1	4.89 µM (inactive)	14.2 µM (inactive)	22.2 µM (inactive)	3.21 µM (inactive)	1.75 µM (inactive)	4.12 µM (inactive)	8.89 µM (inactive)	6.37 µM (inactive)	4.02 µM (inactive)	9.91 µM (inactive)	1.41 µM (inactive)	49 µM (inactive)	7.64 µM (inactive)	2.98 µM (inactive)	3.55 µM (inactive)	6.11 µM (inactive)	–	–	–	–
CC(=O)Nc1ccc(S(=O)(=O)Nc2cnc3ccccc3n2)cc1	> 100 µM (inactive)	> 100 µM (inactive)	> 100 µM (inactive)	> 100 µM (inactive)	> 100 µM (inactive)	> 100 µM (inactive)	> 100 µM (inactive)	> 100 µM (inactive)	> 100 µM (inactive)	> 100 µM (inactive)	> 100 µM (inactive)	> 100 µM (inactive)	> 100 µM (inactive)	> 100 µM (inactive)	> 100 µM (inactive)	> 100 µM (inactive)	–	–	–	–
O=C(/C=C/c1ccccc1)c1ccc(NCc2nc3ccccc3[nH]2)cc1	4.35 µM (inactive)	2.12 µM (inactive)	6.56 µM (inactive)	2.9 µM (inactive)	1.69 µM (inactive)	4.41 µM (inactive)	13.3 µM (inactive)	3.49 µM (inactive)	2.29 µM (inactive)	3.48 µM (inactive)	18 µM (inactive)	12.7 µM (inactive)	6.1 µM (inactive)	16.1 µM (inactive)	2.75 µM (inactive)	1.91 µM (inactive)	–	–	–	–
CC(C)CS(=O)(=O)/C(=C(\c1ccc(Br)cc1)S(=O)(=O)CC(C)C)c1ccc(Br)cc1	> 100 µM (inactive)	> 100 µM (inactive)	15.6 µM (inactive)	> 100 µM (inactive)	> 100 µM (inactive)	> 100 µM (inactive)	> 100 µM (inactive)	> 100 µM (inactive)	> 100 µM (inactive)	> 100 µM (inactive)	> 100 µM (inactive)	> 100 µM (inactive)	> 100 µM (inactive)	> 100 µM (inactive)	> 100 µM (inactive)	> 100 µM (inactive)	–	–	–	–
